Laboratory results from patent publication US10676429B2, “Sulfamoyl-arylamides and the use thereof as medicaments for the treatment of hepatitis B” (priority 2012, dated 2020).
pEC50: −log10 of the molar value.

Experiments:
HBV [1] = assay: Anti-HBV activity in HepG2.117 cell line (Tet-off, intracellular HBV DNA, realtime PCR); type: cell-based; settings: Hepatitis B virus, HepG2.117, 72 h, HepG2.117 cells, 3 days of treatment, intracellular HBV DNA; read-out: HepG2 117 EC50
[2] = Cytotoxicity in HepG2 cells, 4 days, Resazurin assay; settings: human, HepG2 cells
HBV [3] = assay: Anti-HBV activity in stable transfected HepG2.2.15 cell line (HBV DNA from secreted virions, realtime PCR); type: cell-based; settings: Hepatitis B virus, HepG2.2.15, 144 h, HepG2.2.15 cells, 6 days of treatment, secreted virion HBV DNA; read-out: HepG2 2.15 EC50

| SMILES | pEC50 (HBV [1]) | CC50 at 4 days [2] [nM] | pEC50 (HBV [3]) |
| --- | --- | --- | --- |
| COc1ccc(NC(=O)c2cccc(S(=O)(=O)N[C@H]3CCOC3)c2)cc1C [Compound 107] | 4.86 | > 25000 | 5.11 |
| CC1(NS(=O)(=O)c2cccc(C(=O)Nc3ccc(F)c(O)c3)c2)COC1 [Compound 108] | 5.03 | > 25000 | 5.14 |
| COc1cc(NC(=O)c2cccc(S(=O)(=O)NC3(C)COC3)c2)ccc1F [Compound 109] | 5.60 | > 25000 | 5.91 |
| C=Cc1cc(NC(=O)c2cccc(S(=O)(=O)NC3(C)COC3)c2)ccc1F [Compound 110] | 6.07 | > 25000 | 6.18 |
| CC1(NS(=O)(=O)c2cccc(C(=O)Nc3ccc(F)c(CO)c3)c2)COC1 [Compound 111] | 5.83 | > 25000 | 5.35 |
| Cc1cc(NC(=O)c2cccc(S(=O)(=O)N[C@H]3CCOC3)c2F)ccc1F [Compound 112] | 6.85 | > 25000 | 7.52 |
| Cc1ccc(S(=O)(=O)NC2(C)COC2)cc1C(=O)Nc1ccc(F)c(C(F)F)c1 [Compound 113] | 6.74 | > 25000 | 6.82 |
| COc1ccc(NC(=O)c2cccc(S(=O)(=O)NC(C)C)c2)cc1F [Compound 114] | 5.50 | > 25000 | 5.87 |
| Cc1cc(NC(=O)c2cccc(S(=O)(=O)NC(C)CN3CCN(C)CC3)c2)ccc1F (stereo not drawn) [Compound 116] | 6.05 | > 25000 | 5.71 |
| Cc1cc(NC(=O)c2cccc(S(=O)(=O)NC(C)CN3CCOCC3)c2)ccc1F (stereo not drawn) [Compound 117] | 6.30 | > 25000 | 6.06 |
| Cc1cc(NC(=O)c2cccc(S(=O)(=O)NC(C)Cc3ccccn3)c2)ccc1F (stereo not drawn) [Compound 120] | 6.29 | > 25000 | 6.28 |
| Cc1cc(NC(=O)c2cc(S(=O)(=O)N[C@H]3CCOC3)ccc2C)ccc1F [Compound 121] | 6.89 | > 25000 | 6.80 |
| Cc1cc(NC(=O)c2cc(S(=O)(=O)NC3(C)COC3)ccc2C)ccc1F [Compound 122] | 6.74 | > 25000 | 6.89 |
| Cc1cc(NC(=O)c2cc(Cl)cc(S(=O)(=O)N[C@H]3CCOC3)c2F)ccc1F [Compound 123] | 6.52 | > 25000 | 6.82 |
| Cc1cc(NC(=O)c2cccc(S(=O)(=O)N[C@H]3CCOC3)c2Cl)ccc1F [Compound 124] | 6.17 | > 25000 | 6.48 |
| Cc1cc(NC(=O)c2c(Cl)ccc(S(=O)(=O)N[C@H]3CCOC3)c2Cl)ccc1F [Compound 125] | 5.94 | > 25000 | 5.84 |
| Cc1cc(NC(=O)c2cccc(S(=O)(=O)N[C@H]3CCOC3)c2C)ccc1F [Compound 126] | 6.05 | > 25000 | 5.86 |
| CC1(NS(=O)(=O)c2cccc(C(=O)Nc3ccc(F)c(CF)c3)c2)COC1 [Compound 127] | 6.24 | > 25000 | 6.64 |
| Cc1cc(NC(=O)c2cccc(S(=O)(=O)NC3CC4CCC3O4)c2)ccc1F (stereo not drawn) [Compound 128] | 6.27 | > 25000 | 6.64 |
| Cc1cc(NC(=O)c2cccc(S(=O)(=O)N[C@@H]3CCOC3)c2)ccc1F [Compound 129] | 6.11 | > 25000 | 6.46 |
| Cc1cc(NC(=O)c2cccc(S(=O)(=O)N[C@H]3CCCC[C@@H]3O)c2)ccc1F [Compound 131] | 5.76 | > 25000 | 5.58 |
| Cc1cc(NC(=O)c2cccc(S(=O)(=O)N[C@H]3CC[C@H](O)CC3)c2)ccc1F [Compound 133] | 5.77 | > 25000 | 6.22 |
| Cc1cc(NC(=O)c2cccc(S(=O)(=O)N3CC4(COC4)C3)c2)ccc1F [Compound 135] | 6.44 | > 25000 | 6.25 |
| Cc1cc(NC(=O)c2cccc(S(=O)(=O)N[C@@H]3c4ccccc4C[C@@H]3O)c2)ccc1F [Compound 136] | 6.09 | > 25000 | 6.33 |
| Cc1cc(NC(=O)c2cccc(S(=O)(=O)N[C@@H]3CCc4ccccc4[C@@H]3O)c2)ccc1F [Compound 137] | 6.04 | 23700 | 6.18 |
| Cc1cc(NC(=O)c2cccc(S(=O)(=O)N[C@H]3CCC[C@@H]3O)c2)ccc1F [Compound 138] | 5.64 | > 25000 | 5.89 |
| Cc1cc(NC(=O)c2cccc(S(=O)(=O)N[C@H]3CCC[C@H]3O)c2)ccc1F [Compound 139] | 5.76 | > 25000 | 6.00 |

| SMILES | pEC50 (HBV [1]) | CC50 at 4 days [2] [nM] | pEC50 (HBV [3]) |
| --- | --- | --- | --- |
| Cc1cc(NC(=O)c2cccc(S(=O)(=O)NC3CCS(=O)(=O)C3)c2)ccc1F (stereo not drawn) [Compound 140] | 5.95 | > 25000 | 5.96 |
| Cc1cc(NC(=O)c2cccc(S(=O)(=O)NC3Cc4ccccc4C3O)c2)ccc1F (stereo not drawn) [Compound 141] | 6.22 | > 25000 | 6.44 |
| Cc1cc(NC(=O)c2cccc(S(=O)(=O)N[C@H](C)[C@H](O)c3ccccc3)c2)ccc1F [Compound 142] | 6.25 | > 25000 | 6.85 |
| Cc1cc(NC(=O)c2cccc(S(=O)(=O)N[C@@H](C)[C@H](O)c3ccccc3)c2)ccc1F [Compound 143] | 5.58 | > 25000 | 6.04 |
| Cc1cc(NC(=O)c2cccc(S(=O)(=O)N[C@H](C)[C@@H](O)c3ccccc3)c2)ccc1F [Compound 144] | 6.62 | > 25000 | 6.89 |
| Cc1cc(NC(=O)c2cccc(S(=O)(=O)NC3CCC(O)C3)c2)ccc1F (stereo not drawn) [Compound 145] | 6.57 | > 25000 | 6.66 |
| Cc1cc(NC(=O)c2cccc(S(=O)(=O)N3CC4(CCOC4)C3)c2)ccc1F [Compound 146] | 6.38 | > 25000 | 6.35 |
| Cc1cc(NC(=O)c2cccc(S(=O)(=O)N3CCC34COC4)c2)ccc1F [Compound 147] | 6.82 | > 25000 | 6.59 |
| Cc1cc(NC(=O)c2cccc(S(=O)(=O)N[C@@H](C)C3CCCCC3)c2)ccc1F [Compound 148] | 5.51 | 18200 | 6.05 |
| Cc1cc(NC(=O)c2cccc(S(=O)(=O)NC3CCC(F)(F)CC3)c2)ccc1F [Compound 149] | 6.14 | 20800 | 6.66 |
| C=CC(C)NS(=O)(=O)c1cccc(C(=O)Nc2ccc(F)c(C)c2)c1 (stereo not drawn) [Compound 150] | 6.14 | > 25000 | 7.00 |
| Cc1cc(NC(=O)c2cccc(S(=O)(=O)N[C@@H](C)C(C)C)c2)ccc1F [Compound 151] | 5.56 | > 25000 | 6.18 |
| Cc1cc(NC(=O)c2cccc(S(=O)(=O)N[C@H](C)C3CC3)c2)ccc1F [Compound 152] | 6.24 | > 25000 | > 7.00 |
| Cc1cc(NC(=O)c2cccc(S(=O)(=O)NC(C)CCc3ccccc3)c2)ccc1F (stereo not drawn) [Compound 153] | 6.60 | > 25000 | 6.66 |
| Cc1cc(NC(=O)c2cccc(S(=O)(=O)NC3CCCN(C(=O)OC(C)(C)C)C3)c2)ccc1F (stereo not drawn) [Compound 155] | 6.09 | > 25000 | 6.44 |
| Cc1cc(NC(=O)c2cccc(S(=O)(=O)NC3CCN(C(=O)OC(C)(C)C)C3)c2)ccc1F (stereo not drawn) [Compound 156] | 6.68 | > 25000 | 6.72 |
| COC(=O)N1CC(C)(NS(=O)(=O)c2cccc(C(=O)Nc3ccc(F)c(C)c3)c2)C1 [Compound 157] | 6.64 | > 25000 | 6.89 |
| COC(=O)N1CCC(NS(=O)(=O)c2cccc(C(=O)Nc3ccc(F)c(C)c3)c2)C1 (stereo not drawn) [Compound 158] | 6.30 | > 25000 | 6.82 |
| CC1(NS(=O)(=O)c2cccc(C(=O)Nc3ccc(F)c(Br)c3)c2)COC1 [Compound 160, N-(3-bromo-4-fluoro-phenyl)-3-[(3-methyloxetan-3-yl)sulfamoyl]benzamide] | 6.16 | > 25000 | 6.70 |
| Cc1cc(NC(=O)c2cccc(S(=O)(=O)NC(C)c3ccncc3)c2)ccc1F (stereo not drawn) [Compound 161] | 6.46 | > 25000 | 6.70 |
| Cc1cc(NC(=O)c2cccc(S(=O)(=O)NC(C)c3cccnc3)c2)ccc1F (stereo not drawn) [Compound 162] | 5.90 | > 25000 | 6.77 |
| Cc1cc(NC(=O)c2cccc(S(=O)(=O)NC(C)c3ccccn3)c2)ccc1F (stereo not drawn) [Compound 163] | 5.07 | > 25000 | 6.28 |
| Cc1cc(NC(=O)c2cccc(S(=O)(=O)NC(C)C3CCN(C)CC3)c2)ccc1F (stereo not drawn) [Compound 164] | 6.01 | > 25000 | 5.43 |
| Cc1cc(NC(=O)c2cccc(S(=O)(=O)NC(C)CCN3CCOCC3)c2)ccc1F (stereo not drawn) [Compound 165] | 6.44 | > 25000 | 6.15 |
| Cc1cc(NC(=O)c2cccc(S(=O)(=O)N[C@H](C)c3ccccc3)c2)ccc1F [Compound 166] | 5.62 | 14600 | 6.72 |
| Cc1cc(NC(=O)c2cccc(S(=O)(=O)N[C@@H](C)c3ccccc3)c2)ccc1F [Compound 167] | 5.01 | > 25000 | 6.21 |
| Cc1cc(NC(=O)c2cccc(S(=O)(=O)NC3Cc4ccccc4C3)c2)ccc1F [Compound 168] | 6.43 | 11800 | 6.57 |
